Laboratory results published in ChEMBL document CHEMBL1201862, “PubChem BioAssay data set” (2004).
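A five-concentration, 48-hour dose response in 96-well plates underlies each endpoint, interpolated linearly between surrounding concentrations. GI50 = concentration required for 50% inhibition of growth.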 Calls of active or inactive are those of the source. No stated cut-off is given here; in the data, active = GI50 up to about 1.1 µM and inactive = higher.

Experiments:
Assay in all cases: growth of human tumour cells (NCI), 48 h
[1] = tested on: SF-268
[2] = tested on: HCT-116
[3] = tested on: HOP-92
[4] = tested on: COLO 205
[5] = tested on: HOP-62
[6] = tested on: UACC-62
[7] = tested on: ACHN
[8] = tested on: HL-60
[9] = tested on: NCI-H226
[10] = tested on: NCI-H23
[11] = tested on: UO-31
[12] = tested on: EKVX
[13] = tested on: KM12
[14] = tested on: RPMI-8226
[15] = tested on: CCRF-CEM
[16] = tested on: Malme-3M
[17] = tested on: SR
[18] = tested on: A549
[19] = tested on: RXF 393
[20] = tested on: 786-0

Measured: GI50

CC(C)(C)OC(=O)NC(Cc1ccc(OCc2ccccc2)cc1)C(=O)NC(COCc1ccccc1)C(=O)Oc1c(Cl)c(Cl)c(Cl)c(Cl)c1Cl (stereo not given)
inactive: [1] 24.4 µM | [2] 16.4 µM | [3] 13.8 µM | [4] 18.7 µM | [5] 16.4 µM | [6] 16.2 µM | [7] 24.4 µM | [8] 59.8 µM | [9] 21.4 µM | [10] 17.2 µM | [11] 17 µM | [12] 23.1 µM | [13] 19.3 µM | [14] 37.7 µM | [15] 55.2 µM | [16] 25.1 µM | [17] 44.9 µM | [18] 27.1 µM | [19] 24.8 µM

CC(C(=O)NCCNC(=O)CCC(=O)N(C)O)C(=O)NCCNC(=O)CCC(=O)N(C)O
inactive: [1] > 100 µM | [3] > 100 µM | [4] > 100 µM | [5] > 100 µM | [6] > 100 µM | [7] > 100 µM | [8] > 100 µM | [9] > 100 µM | [10] > 100 µM | [11] > 100 µM | [12] > 100 µM | [13] > 100 µM | [14] > 100 µM | [15] > 100 µM | [16] > 100 µM | [17] > 100 µM | [18] > 100 µM | [19] > 100 µM

O=C1/C(=C/c2ccc(Oc3ccccc3)cc2)N=C(c2ccccc2)N1c1ccc(S(=O)(=O)Nc2nccs2)cc1
inactive: [1] 36.8 µM | [2] 10.7 µM | [3] 6.78 µM | [4] 8.3 µM | [5] 14.9 µM | [6] 19.5 µM | [7] 37.2 µM | [8] 6.73 µM | [9] 33.4 µM | [10] 32.7 µM | [11] 21.8 µM | [12] 23.2 µM | [13] 5.15 µM | [14] 6.34 µM | [15] 26.2 µM | [16] 19.1 µM | [20] 31.4 µM | [17] 2.65 µM | [18] 25.8 µM | [19] 17 µM

c1ccc2c(c1)nnn2CNc1ccc(N2CCOCC2)cc1
inactive: [1] > 100 µM | [2] > 100 µM | [3] > 100 µM | [4] > 100 µM | [5] > 100 µM | [6] > 100 µM | [7] 67.3 µM | [8] 33.3 µM | [9] > 100 µM | [10] > 100 µM | [11] > 100 µM | [12] > 100 µM | [13] > 100 µM | [14] 47.4 µM | [15] > 100 µM | [16] > 100 µM | [20] > 100 µM | [17] 43.3 µM | [18] > 100 µM | [19] > 100 µM

CCOC(=O)/C(=C/c1ccc[nH]1)P(=O)(OCC)OCC
inactive: [1] > 100 µM | [2] > 100 µM | [3] 94.2 µM | [4] > 100 µM | [5] > 100 µM | [6] > 100 µM | [7] > 100 µM | [8] > 100 µM | [9] > 100 µM | [10] > 100 µM | [11] > 100 µM | [12] > 100 µM | [13] > 100 µM | [14] > 100 µM | [15] > 100 µM | [16] > 100 µM | [20] > 100 µM | [17] > 100 µM | [18] > 100 µM | [19] > 100 µM

COC(=O)Cc1c([C@H]2[C@H](CC(=O)OC)c3ccccc3N2C(=O)C(F)(F)F)[nH]c2ccccc12
inactive: [1] 27.4 µM | [2] 15.5 µM | [3] 32.3 µM | [4] 18.2 µM | [5] 29 µM | [6] 13.6 µM | [7] 29.8 µM | [8] 40.3 µM | [9] 2 µM | [10] 25.2 µM | [11] 33.6 µM | [12] 26.8 µM | [14] 17.7 µM | [15] 14.6 µM | [16] 29.9 µM | [20] > 100 µM | [17] 14.7 µM | [18] 31.3 µM | [19] 20 µM

O=C1NC2OCC(O)C(O1)C2O (stereo not given)
inactive: [1] > 100 µM | [3] > 100 µM | [4] > 100 µM | [5] > 100 µM | [6] > 100 µM | [7] > 100 µM | [8] > 100 µM | [9] > 100 µM | [10] > 100 µM | [11] > 100 µM | [12] > 100 µM | [13] > 100 µM | [14] > 100 µM | [15] > 100 µM | [16] > 100 µM | [20] > 100 µM | [17] > 100 µM | [19] > 100 µM

CCCCCCCCCCCC(=O)OCC(C[As](=O)(O)O)OC(=O)CCCCCCCCCCC (stereo not given)
inactive: [1] 5.09 µM | [2] 5.61 µM | [3] 1.88 µM | [4] 7.67 µM | [5] 26.9 µM | [6] 2.03 µM | [7] 2.24 µM | [8] 2.61 µM | [9] 16.2 µM | [10] 5.61 µM | [11] 12.4 µM | [12] 7.74 µM | [13] 7.1 µM | [14] 7.4 µM | [15] 3.72 µM | [16] 2.48 µM | [20] 13.4 µM | [17] 3.64 µM | [18] 8.2 µM | [19] 2.43 µM

CCOc1ccc(NC(=O)C(=O)CC(=O)c2c(C)[n+]([O-])c3ccccc3[n+]2[O-])cc1
inactive: [1] > 100 µM | [2] > 100 µM | [3] > 100 µM | [4] > 100 µM | [5] > 100 µM | [6] > 100 µM | [7] > 100 µM | [8] > 100 µM | [9] > 100 µM | [10] > 100 µM | [11] > 100 µM | [12] > 100 µM | [13] > 100 µM | [14] > 100 µM | [15] > 100 µM | [16] > 100 µM | [20] > 100 µM | [17] 64.9 µM | [18] > 100 µM | [19] > 100 µM

COc1cc(C2C(C(=O)NCc3ccccc3)=C(C)NC(C)=C2C(=O)NCc2ccccc2)ccc1O
inactive: [1] 34.9 µM | [2] 44.7 µM | [3] 31.4 µM | [6] 21.8 µM | [7] 42.5 µM | [8] 25.4 µM | [9] 37.9 µM | [10] 31.7 µM | [11] 65.3 µM | [12] 16.6 µM | [14] 23 µM | [15] 26.3 µM | [16] > 100 µM | [20] 46.2 µM | [17] 20.2 µM | [18] 77.4 µM | [19] 28.8 µM

COc1ccc(N(C)C(=O)N(C)c2ccc([N+](=O)[O-])cc2)cc1
inactive: [1] 82 µM | [2] 27.4 µM | [3] 25.5 µM | [5] 39.4 µM | [6] 33.9 µM | [7] > 100 µM | [8] 31 µM | [9] 23 µM | [10] 34.6 µM | [11] 41.4 µM | [12] 65.2 µM | [13] 18.8 µM | [14] 51.1 µM | [15] 23.9 µM | [16] 36.2 µM | [20] 58.9 µM | [17] 19.5 µM | [18] 58.1 µM | [19] 14.3 µM

CSC(=N)N1N=C2/C(=C/c3ccccc3)CCC[C@H]2[C@H]1c1ccccc1
inactive: [1] 15.2 µM | [2] 2.83 µM | [3] 4.28 µM | [4] 1.55 µM | [5] 6.65 µM | [6] 10.9 µM | [7] 3.36 µM | [8] 1.72 µM | [9] 2.64 µM | [10] 4.88 µM | [11] 3.4 µM | [12] 4.56 µM | [13] 9.84 µM | [14] 2.18 µM | [15] 2.6 µM | [16] 1.93 µM | [20] 5.47 µM | [17] 1.85 µM | [18] 4.49 µM | [19] 2.86 µM

CC1(c2nc3ccccc3[nH]2)CCC(C#N)C(C)(C)O1 (stereo not given)
inactive: [1] > 100 µM | [2] > 100 µM | [3] > 100 µM | [4] > 100 µM | [5] > 100 µM | [6] > 100 µM | [7] > 100 µM | [8] > 100 µM | [9] > 100 µM | [10] > 100 µM | [11] 36 µM | [12] > 100 µM | [13] 7.74 µM | [14] > 100 µM | [15] > 100 µM | [16] > 100 µM | [20] > 100 µM | [17] > 100 µM | [18] > 100 µM | [19] > 100 µM

CCCCCCc1cc2cc(C(=O)Nc3nc(C45CC6CC(CC(C6)C4)C5)cs3)c(=O)oc2cc1O
inactive: [1] 9.57 µM | [2] 3.56 µM | [3] 4.93 µM | [4] 16.7 µM | [5] 18.1 µM | [6] 4.65 µM | [7] 4.43 µM | [8] 5.18 µM | [9] 19.1 µM | [10] 5 µM | [11] 24.5 µM | [12] 17.9 µM | [13] 11 µM | [14] 11.2 µM | [15] 6.78 µM | [16] 19.7 µM | [20] 12.1 µM | [17] 5.6 µM | [18] 17.7 µM | [19] 8.24 µM
